Patent US20260069588A1, “VEPDEGESTRANT FOR USE IN TREATING CANCER” (Arvinas Operation, Inc., priority 2022, published 2026)
“And” between values parts separate entries of the source, which are not always exact repeats. Identical values can stand only once.

Experiments:
[1] = Interconversion (epimerization) Compound A/Compound B in animals; assay type: in vivo, mouse, rat, dog, and monkey; details: monkey
[2] = Plasma protein binding, dog; assay type: in vitro ADME; details: read-out: free fraction
CK1α = CK1α (Homo sapiens, UniProt P48729); experiment: Cereblon neomorphic substrate degradation, CK1α; assay type: cell-based; details: in vitro
Excerpt: These drugs bind to cereblon and promote the degradation of novel (neomorphic) substrates.

[3] = Phase 2 study of Compound A or anastrozole in early ER+/HER2− breast cancer: adverse events
Excerpt: The study will also evaluate safety, tolerability, and clinical and pathological response after approximately 5.5 months of treatment.

[4] = 7-day oral dose range finding toxicity study in dogs; assay type: in vivo; details: dog, up to 120 mg/kg/day, 7 days
[5] = Turnover in liver microsomes and hepatocytes; assay type: in vitro ADME; details: across species
Excerpt: No human unique metabolites were observed. Although it is not thought to be formed via enzymatic conversion, the epimer Compound B was formed to a limited extent in animals.

[6] = rat, in vivo
[7] = 28-day GLP oral toxicity study in rats; details: both sexes, in vivo; rat, 28 days oral
Procedure: There were no mortalities and no Compound A-related clinical observations or changes in BWs or food consumption, and no FOB observations or ophthalmology findings. Minor clinical pathology changes at the 100 mg/kg/day dose level (minimally higher lymphocyte count in males, minimally lower calcium concentration in both sexes, minimally lower albumin concentration in males, and mildly lower cholesterol concentration in females) were potentially Compound A-related but were reversible and were not considered adverse.
Compound A-related microscopic findings included increased ovarian cysts in females administered ≥3 mg/kg/day and atrophy of the uterus and of the cervical and vaginal mucosal epithelium in females administered ≥10 mg/kg/day. […] Similar findings had been noted in a few animals in the 7-day study.

[8] = Plasma protein binding, rat; assay type: in vitro ADME; details: read-out: free fraction
[9] = 28-day GLP oral toxicity study in dogs; assay type: in vivo; details: dog
Excerpt: There were no mortalities and no Compound A-related clinical observations, changes in BW or food consumption or ophthalmic observations. There were no ARV-471-related ECG abnormalities observed, including no effects on PR-interval, QRS duration, QT or QTc intervals, or heart rate and no arrhythmias or abnormal waveforms.

[10] = Single-dose oral TK and tolerability study in beagle dogs; assay type: in vivo; details: dog
Procedure: A lead-in single-dose TK and tolerability study conducted prior to the telemetry study indicated approximately dose-proportional increase in exposure between 200 and 400 mg/kg in the dog.

[11] = tested on: ER+/HER2− locally advanced/metastatic breast cancer; experiment: FIH Study Part B (VERITAC): clinical benefit rate, PFS; assay type: in vivo, human
T47D cells = experiment: Live-cell imaging proliferation, T47D; assay type: cell-based; details: Homo sapiens, 144 h, up to 6 days
Excerpt: Full growth of the cells over this time period is shown by extent of cell confluence with dimethyl sulfoxide (DMSO).

[12] = Plasma protein binding, human; assay type: in vitro ADME; details: read-out: free fraction
[13] = Clinical Pharmacology Study Fed/Fasted cohort: food effect on single-dose PK; assay type: in vivo, human; details: 200 mg single dose
Excerpt: Study Design: The Clinical Pharmacology Study consists of 3 independent cohorts: 1) an open-label, randomized, 2-period, crossover Fed/Fasted cohort to determine food effects; 2) an open-label, 2-period, fixed sequence PPI cohort to evaluate interactions with esomeprazole; and 3) an open-label, randomized, 2 period, crossover rBA cohort to evaluate 2 tablet formulations.
Compound A should be taken with food.

AR = AR (Homo sapiens, UniProt P10275); experiment: Secondary pharmacodynamics binding, AR; details: in vitro
opioid kappa receptor = opioid kappa receptor (Homo sapiens, UniProt P41145); experiment: Secondary pharmacodynamics binding, opioid kappa receptor; details: in vitro
GR = GR (Homo sapiens, UniProt P04150); experiment: Secondary pharmacodynamics binding, GR; details: in vitro
[14] = TEAE, Treatment Related per title, Compound A 200 mg N = 23, Anastrozole 1 mg N = 13

Chain of AR (P10275 whole entry): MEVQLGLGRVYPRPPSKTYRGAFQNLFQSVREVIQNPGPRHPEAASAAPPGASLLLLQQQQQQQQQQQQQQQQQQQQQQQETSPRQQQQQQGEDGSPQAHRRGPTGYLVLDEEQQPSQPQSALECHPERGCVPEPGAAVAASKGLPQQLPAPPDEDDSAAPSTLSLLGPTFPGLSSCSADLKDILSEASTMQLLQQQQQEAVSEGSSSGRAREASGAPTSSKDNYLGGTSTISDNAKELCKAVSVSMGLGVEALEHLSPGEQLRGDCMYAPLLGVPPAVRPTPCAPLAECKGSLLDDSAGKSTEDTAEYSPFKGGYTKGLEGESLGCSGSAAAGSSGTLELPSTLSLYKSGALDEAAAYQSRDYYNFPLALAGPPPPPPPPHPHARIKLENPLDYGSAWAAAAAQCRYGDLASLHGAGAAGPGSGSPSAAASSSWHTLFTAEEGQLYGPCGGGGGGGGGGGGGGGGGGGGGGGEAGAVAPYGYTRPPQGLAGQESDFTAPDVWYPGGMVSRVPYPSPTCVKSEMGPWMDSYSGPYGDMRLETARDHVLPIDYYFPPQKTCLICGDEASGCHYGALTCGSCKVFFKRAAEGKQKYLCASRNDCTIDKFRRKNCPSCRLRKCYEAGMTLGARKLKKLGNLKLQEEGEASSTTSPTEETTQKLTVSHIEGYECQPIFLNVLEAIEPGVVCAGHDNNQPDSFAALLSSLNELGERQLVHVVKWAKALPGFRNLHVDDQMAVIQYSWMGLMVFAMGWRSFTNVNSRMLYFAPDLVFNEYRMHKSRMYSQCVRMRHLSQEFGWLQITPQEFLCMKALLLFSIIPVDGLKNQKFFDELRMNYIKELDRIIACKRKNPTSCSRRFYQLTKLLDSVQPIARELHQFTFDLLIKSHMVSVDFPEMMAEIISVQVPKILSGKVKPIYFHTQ
Chain of opioid kappa receptor (P41145 whole entry): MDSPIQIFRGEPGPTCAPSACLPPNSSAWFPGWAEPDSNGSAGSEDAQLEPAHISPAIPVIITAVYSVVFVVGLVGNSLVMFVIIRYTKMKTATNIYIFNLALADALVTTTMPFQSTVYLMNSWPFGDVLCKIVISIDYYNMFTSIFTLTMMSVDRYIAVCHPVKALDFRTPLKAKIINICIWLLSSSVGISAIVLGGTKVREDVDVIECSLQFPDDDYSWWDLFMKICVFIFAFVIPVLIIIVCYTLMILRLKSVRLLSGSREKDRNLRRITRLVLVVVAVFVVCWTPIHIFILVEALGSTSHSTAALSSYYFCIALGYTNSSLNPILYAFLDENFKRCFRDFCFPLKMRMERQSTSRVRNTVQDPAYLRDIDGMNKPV
Chain of CK1α (Q96SW2 whole entry partner): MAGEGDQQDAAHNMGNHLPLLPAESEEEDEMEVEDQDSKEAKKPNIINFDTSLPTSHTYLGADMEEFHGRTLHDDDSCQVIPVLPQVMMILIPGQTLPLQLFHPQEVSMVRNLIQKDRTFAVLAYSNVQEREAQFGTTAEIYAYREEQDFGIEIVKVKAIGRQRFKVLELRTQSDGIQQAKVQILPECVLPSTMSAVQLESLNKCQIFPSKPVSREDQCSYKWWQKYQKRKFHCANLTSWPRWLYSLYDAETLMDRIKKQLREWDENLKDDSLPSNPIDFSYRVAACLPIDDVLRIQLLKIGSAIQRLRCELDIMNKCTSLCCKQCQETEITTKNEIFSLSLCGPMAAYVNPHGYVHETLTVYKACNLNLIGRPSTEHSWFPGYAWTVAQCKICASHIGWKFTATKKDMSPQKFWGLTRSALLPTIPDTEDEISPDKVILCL
Chain of CK1α (Q16531 whole entry partner): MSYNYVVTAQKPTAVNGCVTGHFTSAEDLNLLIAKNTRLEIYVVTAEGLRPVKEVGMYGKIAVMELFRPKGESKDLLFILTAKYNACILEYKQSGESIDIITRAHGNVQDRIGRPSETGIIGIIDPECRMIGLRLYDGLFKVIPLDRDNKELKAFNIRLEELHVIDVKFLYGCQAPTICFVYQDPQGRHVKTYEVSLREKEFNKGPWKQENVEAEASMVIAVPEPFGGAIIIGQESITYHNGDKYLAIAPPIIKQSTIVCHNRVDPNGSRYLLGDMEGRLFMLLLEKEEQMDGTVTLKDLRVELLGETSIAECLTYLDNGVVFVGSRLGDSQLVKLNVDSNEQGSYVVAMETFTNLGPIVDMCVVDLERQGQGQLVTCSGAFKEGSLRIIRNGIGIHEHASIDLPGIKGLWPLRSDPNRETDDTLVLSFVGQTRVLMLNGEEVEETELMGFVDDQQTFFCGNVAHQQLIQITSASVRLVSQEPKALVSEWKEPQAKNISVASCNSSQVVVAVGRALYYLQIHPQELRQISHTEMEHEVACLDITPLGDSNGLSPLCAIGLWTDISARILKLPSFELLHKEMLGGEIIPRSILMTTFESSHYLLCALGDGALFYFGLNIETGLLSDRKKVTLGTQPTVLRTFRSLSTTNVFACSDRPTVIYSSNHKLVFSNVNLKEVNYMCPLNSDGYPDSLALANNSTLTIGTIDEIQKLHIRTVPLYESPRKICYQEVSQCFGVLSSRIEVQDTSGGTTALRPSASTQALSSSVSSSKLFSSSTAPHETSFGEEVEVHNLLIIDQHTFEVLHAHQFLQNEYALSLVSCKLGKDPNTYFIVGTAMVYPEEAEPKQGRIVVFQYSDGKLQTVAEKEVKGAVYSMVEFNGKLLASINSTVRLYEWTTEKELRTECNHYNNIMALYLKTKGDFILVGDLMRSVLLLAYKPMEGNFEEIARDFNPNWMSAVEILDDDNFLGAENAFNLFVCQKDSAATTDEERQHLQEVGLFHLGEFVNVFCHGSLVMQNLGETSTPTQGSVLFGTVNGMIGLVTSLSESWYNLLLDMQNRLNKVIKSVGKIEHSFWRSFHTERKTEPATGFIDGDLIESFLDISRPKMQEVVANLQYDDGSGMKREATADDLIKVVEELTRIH
Chain of CK1α (P48729 whole entry): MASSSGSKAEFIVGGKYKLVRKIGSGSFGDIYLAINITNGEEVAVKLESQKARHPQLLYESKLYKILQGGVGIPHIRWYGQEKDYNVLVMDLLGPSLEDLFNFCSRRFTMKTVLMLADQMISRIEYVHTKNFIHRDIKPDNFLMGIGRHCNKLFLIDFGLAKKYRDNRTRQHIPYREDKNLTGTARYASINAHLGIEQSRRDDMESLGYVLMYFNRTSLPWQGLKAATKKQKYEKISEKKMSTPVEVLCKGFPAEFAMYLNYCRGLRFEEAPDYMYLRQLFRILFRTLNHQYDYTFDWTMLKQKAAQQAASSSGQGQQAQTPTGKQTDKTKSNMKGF
Chain of GR (P04150 whole entry): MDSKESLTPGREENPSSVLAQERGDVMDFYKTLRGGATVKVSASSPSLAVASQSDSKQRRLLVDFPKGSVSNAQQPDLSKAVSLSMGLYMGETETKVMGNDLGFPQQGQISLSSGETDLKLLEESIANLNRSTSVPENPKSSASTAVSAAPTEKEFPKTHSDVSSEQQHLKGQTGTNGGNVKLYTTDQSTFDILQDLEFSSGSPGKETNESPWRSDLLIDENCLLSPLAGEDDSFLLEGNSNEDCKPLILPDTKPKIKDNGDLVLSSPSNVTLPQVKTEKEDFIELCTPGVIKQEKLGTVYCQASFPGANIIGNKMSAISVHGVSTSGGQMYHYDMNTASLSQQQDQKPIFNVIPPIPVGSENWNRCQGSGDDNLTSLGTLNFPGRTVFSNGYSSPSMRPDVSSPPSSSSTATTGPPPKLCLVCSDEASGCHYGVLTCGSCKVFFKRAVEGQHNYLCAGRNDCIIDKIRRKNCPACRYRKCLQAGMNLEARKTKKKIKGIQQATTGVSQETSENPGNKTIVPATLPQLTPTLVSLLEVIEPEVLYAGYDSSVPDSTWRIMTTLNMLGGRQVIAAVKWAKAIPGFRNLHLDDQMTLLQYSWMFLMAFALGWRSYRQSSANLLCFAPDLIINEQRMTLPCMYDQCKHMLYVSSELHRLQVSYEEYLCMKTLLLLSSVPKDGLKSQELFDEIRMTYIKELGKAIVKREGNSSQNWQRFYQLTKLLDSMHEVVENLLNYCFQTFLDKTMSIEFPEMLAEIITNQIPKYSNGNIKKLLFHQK

O=C1CC[C@H](N2Cc3cc(N4CCN(CC5CCN(c6ccc([C@@H]7c8ccc(O)cc8CC[C@@H]7c7ccccc7)cc6)CC5)CC4)ccc3C2=O)C(=O)N1 [Compound A, (S)-3-(5-(4-((1-(4-((1R,2S)-6-hydroxy-2-phenyl-1,2,3,4-tetrahydronaphthalen-1-yl)phenyl)piperidin-4-yl)methyl)piperazin-1-yl)-1-oxoisoindolin-2-yl)piperidine-2,6-dione]
extent of epimerization [1]: negligible
fraction unbound at 1 μM [2]: 0.026
degradation of CK1α (CK1α): did not degrade
participants on Compound A with a treatment-related AE ([3]; 200 mg, seven participants, 6 Jun 2023): 19.4%
Anemia [3, 14]: 0 n (%)
Arthralgia [3, 14]: 0 n (%)
Asphyxia [3, 14]: 1 (4.3) n (%)
Asthenia [3, 14]: 2 (8.7) n (%)
Blood and lymphatic system disorders [3, 14]: 1 (4.3) n (%)
Blood uric acid increased [3, 14]: 1 (4.3) n (%)
Breast pain [3, 14]: 1 (4.3) n (%)
Cardiac disorders [3, 14]: 1 (4.3) n (%)
Constipation [3, 14]: 2 (8.7) n (%)
Diarrhea [3, 14]: 1 (4.3) n (%)
Dyspepsia [3, 14]: 0 n (%)
Fatigue [3, 14]: 1 (4.3) n (%)
Gastrointestinal disorders [3, 14]: 4 (17.4) n (%)
General disorders and administration site conditions [3, 14]: 4 (17.4) n (%)
Hematocrit decreased [3, 14]: 0 n (%)
Heparin-induced thrombocytopenia [3, 14]: 1 (4.3) n (%)
Hepatobiliary disorders [3, 14]: 3 (13.0) n (%)
Hot flush [3, 14]: 3 (13.0) n (%)
Hyperbilirubinemia [3, 14]: 2 (8.7) n (%)
Hypercalcemia [3, 14]: 1 (4.3) n (%)
Hyperglycemia [3, 14]: 2 (8.7) n (%)
Hypernatremia [3, 14]: 1 (4.3) n (%)
Hypertransaminasemia [3, 14]: 1 (4.3) n (%)
Hypokalemia [3, 14]: 1 (4.3) n (%)
Hyponatremia [3, 14]: 1 (4.3) n (%)
Injury, poisoning and procedural complications [3, 14]: 1 (4.3) n (%)
Insomnia [3, 14]: 1 (4.3) n (%)
Investigations [3, 14]: 1 (4.3) n (%)
Lymphopenia [3, 14]: 0 n (%)
Metabolism and nutrition disorders [3, 14]: 2 (8.7) n (%)
Musculoskeletal and connective tissue disorders [3, 14]: 0 n (%)
Myalgia [3, 14]: 0 n (%)
Nervous system disorders [3, 14]: 2 (8.7) n (%)
Odynophagia [3, 14]: 1 (4.3) n (%)
Procedural pain [3, 14]: 1 (4.3) n (%)
Pruritus [3, 14]: 1 (4.3) n (%)
Psychiatric disorders [3, 14]: 2 (8.7) n (%)
Pyrexia [3, 14]: 1 (4.3) n (%)
Reproductive system and breast disorders [3, 14]: 1 (4.3) n (%)
Respiratory, thoracic and mediastinal disorders [3, 14]: 1 (4.3) n (%)
Sinus bradycardia [3, 14]: 1 (4.3) n (%)
Skin and subcutaneous tissue disorders [3, 14]: 1 (4.3) n (%)
Somnolence [3, 14]: 2 (8.7) n (%)
Stomatitis [3, 14]: 1 (4.3) n (%)
Tension [3, 14]: 1 (4.3) n (%)
Vascular disorders [3, 14]: 3 (13.0) n (%)
With Any Adverse Event [3, 14]: 11 (47.8) n (%)
tolerability [4]: well tolerated
turnover in liver microsomes and hepatocytes [5]: relatively low turnover
developmental NOAEL [6]: could not be established
NOAEL at 28 days [7]: 100 mg/kg/day
fraction unbound at 1 μM [8]: 0.082
ECG evaluations ([9]; 28 days, up to 90 mg/kg/day): did not elicit any changes in ECG evaluations
NOAEL at 28 days ([9]; in vivo, 28 days oral): 90 mg/kg/day
Cmax ([10]; both sexes, beagle, in vivo, 400 mg/kg single oral, sexes combined): 25000 ng/mL
AUC ([10]; both sexes, beagle, in vivo, 400 mg/kg single oral, sexes combined, read-out: mean AUC24): 349 µg·h/mL
tolerability ([10]; 200 or 400 mg/kg single oral, fecal changes, emesis at 400): tolerated
median progression-free survival ([11]; 200 mg QD, all evaluable, 95% CI 1.8-7.8): 3.5 months
PFS ([11]; ITT (n=71)): 3.7 months
GI50 (T47D cells): 1.7 nM
fraction unbound at 1 μM [12]: 0.124
increase of AUCinf by high-fat meal [13]: 125%
increase of AUCinf by high-fat meal vs fasted [13]: 2.2 fold and 2 fold
increase of Cmax by high-fat meal [13]: 184%
increase of Cmax by high-fat meal vs fasted [13]: 2.8 fold and 3 fold
binding (AR): bound
binding (opioid kappa receptor): bound
binding (GR): bound
